Measurements as given in patent US20260265238A1, “COMPOUNDS AND PHARMACEUTICAL COMPOSITIONS THAT DEGRADE SWI/SNF-RELATED MATRIX-ASSOCIATED ACTIN-DEPENDENT REGULATOR OF CHROMATIN SUBFAMILY A” (Plexium, Inc., priority 2023, published 2026).

Assays:
[1] = biological target: T1, SMARCA4-HiBiT HeLa cells (protein which is expressed from the SMARCA4 gene) (Homo sapiens, UniProt P51532); assay: SMARCA4 degradation assay (HiBiT-fusion HeLa cell line, 24 h, luminescence); type: cell-based
T1 construct: protein which is expressed from the SMARCA2 and SMARCA4 genes; host or cells: HeLa (SMARCA4-HiBiT engineered line)
Protocol: (§1) SMARCA2 and SMARCA4 Degradation Assay
(§2) Degradation of protein which is expressed from the SMARCA2 and SMARCA4 genes was monitored using engineered HiBiT-fusion HeLa cell lines from Promega. In brief, 384-well white opaque plates (Greiner) were seeded with SMARCA2-HiBiT or SMARCA4-HiBiT HeLa cells at 8,000 cells/well and incubated overnight at 37° C. to allow cell attachment. After overnight incubation, test compounds were added in a 10-point dilution series (typically 10 μM to 300 pM) using a TECAN D300e Digital Dispenser, and plates were subsequently incubated for 24 hours at 37° C. 24-hours post-treatment, protein levels were quantified with the addition of HiBiT lytic buffer, LgBiT protein, and HiBiT substrate, according to manufacturer's specifications. Plates were incubated on an orbital plate shaker for 10 minutes at room temperature. Resulting luminescent values were read out using a ClarioStar plate reader and used to construct dose-response curves and calculation of degradation DC50s (GraphPad Prism).
(§3) Activity of the tested compounds is provided in Table 4 below as follows: A=DC50<0.050 μM; B=0.05 μM<DC50<0.50 μM; C=<0.5 μM<DC50<5.0 μM; D=DC50>5.0 μM. For SMARCA2 and SMARCA4 degradation activity @1 μM, +++=>70%; ++=30-70%; +=<30%.

[2] = biological target: T2, SMARCA2-HiBiT HeLa cells (protein which is expressed from the SMARCA2 gene) (Homo sapiens, UniProt P51531); assay: SMARCA2 degradation assay (HiBiT-fusion HeLa cell line, 24 h, luminescence); type: cell-based
T2 construct: protein which is expressed from the SMARCA2 and SMARCA4 genes; host or cells: HeLa (SMARCA2-HiBiT engineered line)
Protocol: as §1, §2, §3

T2 sequence (P51531 whole entry, the tested form may be a part): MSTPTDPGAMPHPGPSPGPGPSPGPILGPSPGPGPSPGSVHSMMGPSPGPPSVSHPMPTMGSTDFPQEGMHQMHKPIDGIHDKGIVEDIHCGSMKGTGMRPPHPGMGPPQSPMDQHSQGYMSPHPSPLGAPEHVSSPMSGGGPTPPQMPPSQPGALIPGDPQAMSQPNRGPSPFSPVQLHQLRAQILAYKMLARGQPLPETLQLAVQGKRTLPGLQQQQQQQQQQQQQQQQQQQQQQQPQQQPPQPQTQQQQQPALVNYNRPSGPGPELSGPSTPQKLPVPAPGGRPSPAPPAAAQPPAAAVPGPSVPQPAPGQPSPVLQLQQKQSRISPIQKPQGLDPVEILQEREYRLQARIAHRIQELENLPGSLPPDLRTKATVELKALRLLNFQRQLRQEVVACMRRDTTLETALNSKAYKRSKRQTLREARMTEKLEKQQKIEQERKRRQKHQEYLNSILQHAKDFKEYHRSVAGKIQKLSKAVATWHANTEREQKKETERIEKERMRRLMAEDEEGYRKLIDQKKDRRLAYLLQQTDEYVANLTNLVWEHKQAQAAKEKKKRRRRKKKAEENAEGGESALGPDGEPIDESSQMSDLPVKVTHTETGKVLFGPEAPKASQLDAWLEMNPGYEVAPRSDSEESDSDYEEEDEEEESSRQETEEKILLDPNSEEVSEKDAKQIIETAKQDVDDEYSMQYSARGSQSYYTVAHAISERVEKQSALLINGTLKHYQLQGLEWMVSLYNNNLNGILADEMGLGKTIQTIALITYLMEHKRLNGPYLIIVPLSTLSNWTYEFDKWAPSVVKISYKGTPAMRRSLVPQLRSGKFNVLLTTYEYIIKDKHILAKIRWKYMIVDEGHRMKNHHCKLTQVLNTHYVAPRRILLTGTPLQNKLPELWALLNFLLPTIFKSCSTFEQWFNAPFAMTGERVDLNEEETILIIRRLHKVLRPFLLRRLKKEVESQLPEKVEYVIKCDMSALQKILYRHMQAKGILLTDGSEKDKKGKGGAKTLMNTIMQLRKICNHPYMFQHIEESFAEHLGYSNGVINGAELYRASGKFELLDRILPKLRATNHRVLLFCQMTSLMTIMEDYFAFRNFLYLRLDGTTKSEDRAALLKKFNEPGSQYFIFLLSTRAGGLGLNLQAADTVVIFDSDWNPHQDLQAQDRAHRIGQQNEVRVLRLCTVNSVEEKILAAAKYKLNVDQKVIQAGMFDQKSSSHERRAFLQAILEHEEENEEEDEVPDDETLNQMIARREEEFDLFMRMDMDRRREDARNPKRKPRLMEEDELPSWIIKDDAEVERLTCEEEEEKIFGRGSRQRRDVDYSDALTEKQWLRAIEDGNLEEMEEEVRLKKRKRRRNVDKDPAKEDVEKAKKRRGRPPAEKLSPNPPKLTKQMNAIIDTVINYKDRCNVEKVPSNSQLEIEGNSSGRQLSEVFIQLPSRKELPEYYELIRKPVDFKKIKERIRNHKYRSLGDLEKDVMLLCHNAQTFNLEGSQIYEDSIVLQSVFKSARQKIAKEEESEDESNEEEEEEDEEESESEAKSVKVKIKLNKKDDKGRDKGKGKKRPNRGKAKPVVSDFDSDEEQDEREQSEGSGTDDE
T1 sequence (P51532 whole entry, the tested form may be a part): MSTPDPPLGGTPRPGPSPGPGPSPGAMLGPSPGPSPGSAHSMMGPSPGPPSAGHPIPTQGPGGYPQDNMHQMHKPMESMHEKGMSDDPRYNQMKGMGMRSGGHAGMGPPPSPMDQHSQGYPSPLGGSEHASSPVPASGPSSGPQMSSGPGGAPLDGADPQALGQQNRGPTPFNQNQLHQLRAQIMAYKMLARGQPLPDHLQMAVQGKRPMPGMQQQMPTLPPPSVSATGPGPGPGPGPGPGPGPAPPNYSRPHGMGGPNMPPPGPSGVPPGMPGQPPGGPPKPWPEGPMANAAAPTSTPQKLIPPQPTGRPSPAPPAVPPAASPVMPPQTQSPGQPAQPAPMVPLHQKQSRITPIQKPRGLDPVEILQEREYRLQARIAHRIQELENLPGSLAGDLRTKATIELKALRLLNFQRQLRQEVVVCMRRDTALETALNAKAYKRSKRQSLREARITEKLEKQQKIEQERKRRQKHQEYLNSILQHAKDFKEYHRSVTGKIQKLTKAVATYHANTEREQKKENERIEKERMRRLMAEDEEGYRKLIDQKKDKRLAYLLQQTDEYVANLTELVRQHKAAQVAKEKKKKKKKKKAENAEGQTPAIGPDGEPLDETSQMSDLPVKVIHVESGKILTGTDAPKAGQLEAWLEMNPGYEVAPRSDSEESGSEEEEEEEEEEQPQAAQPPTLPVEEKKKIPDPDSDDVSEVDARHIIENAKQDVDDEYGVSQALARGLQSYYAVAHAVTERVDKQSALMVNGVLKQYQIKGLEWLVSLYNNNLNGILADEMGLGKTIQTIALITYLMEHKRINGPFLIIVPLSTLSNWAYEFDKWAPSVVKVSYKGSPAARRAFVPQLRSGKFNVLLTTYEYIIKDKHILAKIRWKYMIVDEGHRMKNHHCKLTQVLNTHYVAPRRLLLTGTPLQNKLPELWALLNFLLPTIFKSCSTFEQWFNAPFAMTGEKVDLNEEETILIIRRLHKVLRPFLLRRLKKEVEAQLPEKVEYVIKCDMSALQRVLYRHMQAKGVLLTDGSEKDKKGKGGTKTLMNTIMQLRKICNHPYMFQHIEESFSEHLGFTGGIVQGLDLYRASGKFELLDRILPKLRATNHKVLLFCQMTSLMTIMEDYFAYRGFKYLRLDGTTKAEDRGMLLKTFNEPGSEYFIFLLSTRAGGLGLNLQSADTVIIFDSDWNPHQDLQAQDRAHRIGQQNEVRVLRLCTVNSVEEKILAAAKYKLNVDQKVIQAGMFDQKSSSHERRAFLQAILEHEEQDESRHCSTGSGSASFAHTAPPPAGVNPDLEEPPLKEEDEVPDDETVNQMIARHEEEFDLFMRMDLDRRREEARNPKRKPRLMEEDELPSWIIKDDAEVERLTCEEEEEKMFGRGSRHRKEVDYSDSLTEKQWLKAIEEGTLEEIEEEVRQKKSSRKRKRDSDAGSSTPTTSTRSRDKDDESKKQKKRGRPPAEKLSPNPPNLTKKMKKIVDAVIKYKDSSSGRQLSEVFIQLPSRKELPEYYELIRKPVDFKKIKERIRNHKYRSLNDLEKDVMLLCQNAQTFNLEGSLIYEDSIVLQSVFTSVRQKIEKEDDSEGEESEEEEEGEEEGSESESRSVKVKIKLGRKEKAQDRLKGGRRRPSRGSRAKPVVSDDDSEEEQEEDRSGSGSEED

Row | DC50 [1] [nM] | inhibition at 1 µM ([1]; @ 1 μM) [%] | DC50 [2] [nM] | SMARCA2 % Degradation @ 1 μM ([2]; @ 1 μM) | inhibition at 1 µM ([1]; 1 μM) [%] | SMARCA2 % Degradation @ 1 μM ([2]; 1 μM) | Structure (SMILES)
1 | 50 to 500 | < 30 | 50 to 500 | ++ (++=30-70%) | – | – | Cc1nn2ccn(CC#Cc3nccc(N4CCN(c5cc(-c6ccccc6O)nnc5N)CC[C@H]4C)n3)c(=O)c2c1C [Compound P-336, 5-[3-(4-{ (R)-4-[3-amino-6-(o-hydroxyphenyl)-4-pyridazinyl]-7-methyl-1,4-diazepan-1-yl}-2-pyrimidinyl)-2-propynyl]-2,3-dimethyl-1,5,7a-triaza-4(5H)-indenone]
2 | 50 to 500 | 30 to 70 | 50 to 500 | ++ (++=30-70%) | – | – | Cc1cc(C(=O)NCC#Cc2nccc(N3CCN(c4cc(-c5ccccc5O)nnc4N)CC3)n2)nn1C [Compound P-12, N-(3-(4-(4-(3-amino-6-(2-hydroxyphenyl)pyridazin-4-yl)piperazin-1-yl)pyrimidin-2-yl)prop-2-yn-1-yl)-1,5-dimethyl-1H-pyrazole-3-carboxamide]
3 | < 50 | 30 to 70 | < 50 | ++ (++=30-70%) | – | – | C[C@@H]1CCN(c2cc(-c3ccccc3O)nnc2N)CCN1c1nc(C#CCN2CC3CC2C3)ncc1F [Compound P-189, o-{5-[(R)-4-(2-{3-(2-azabicyclo[2.1.1]hex-2-yl)-1-propynyl}-5-fluoro-4-pyrimidinyl)-5-methyl-1,4-diazepan-1-yl]-6-amino-3-pyridazinyl}phenol]
4 | 500 to 5000 | < 30 | 500 to 5000 | ++ (++=30-70%) | – | – | CC(=O)NCC#Cc1nccc(N2CCCN(c3cc(-c4ccccc4O)nnc3N)CC2)n1 [Compound P-122, N-(3-(4-(4-(3-amino-6-(2-hydroxyphenyl)pyridazin-4-yl)-1,4-diazepan-1-yl)pyrimidin-2-yl)prop-2-yn-1-yl)acetamide]
5 | 50 to 500 | – | 50 to 500 | – | 30 to 70 | +++ (+++=>70%) | C[C@@H]1CCN(c2cc(-c3ccccc3O)nnc2N)CCN1c1ccnc(C#CC2CC(F)(F)C2)c1 [Compound P-396, 0-{5-[(R)-4-{2-[2-(3,3-difluorocyclobutyl)ethynyl]-4-pyridyl}-5-methyl-1,4-diazepan-1-yl]-6-amino-3-pyridazinyl}phenol]
6 | 50 to 500 | 30 to 70 | 50 to 500 | ++ (++=30-70%) | – | – | CC1(F)CCN(CC#Cc2nccc(N3CCC4(CC3)CCN(c3cc(-c5ccccc5O)nnc3N)C4)n2)C1 (centres unmarked) [Compound P-195, o-[6-amino-5-(8-{2-[3-(3-fluoro-3-methyl-1-pyrrolidinyl)-1-propynyl]-4-pyrimidinyl}-2,8-diaza-2-spiro[4.5]decyl)-3-pyridazinyl]phenol]
7 | 50 to 500 | 30 to 70 | 50 to 500 | +++ (+++=>70%) | – | – | COC/C=C/c1nccc(N2CCCN(c3cc(-c4ccccc4O)nnc3N)CC2)n1 [Compound P-159, o-(6-amino-5-{4-[2-(3-methoxy-1-propenyl)-4-pyrimidinyl]-1,4-diazepan-1-yl}-3-pyridazinyl)phenol]
8 | 500 to 5000 | 30 to 70 | 50 to 500 | ++ (++=30-70%) | – | – | Nc1nnc(-c2ccccc2O)cc1OC1CC2CN(c3ccnc(C#CCN4CCC4)n3)CC2C1 (centres unmarked) [Compound P-197, o-[6-amino-5-(3-(2-[3-(1-azetidinyl)-1-propynyl]-4-pyrimidinyl}-3-azabicyclo[3.3.0]oct-7-yloxy)-3-pyridazinyl]phenol]
9 | 500 to 5000 | < 30 | 50 to 500 | ++ (++=30-70%) | – | – | CC1(C)COCCN1CC#Cc1nccc(N2CCCN(c3cc(-c4ccccc4O)nnc3N)CC2)n1 [Compound P-317, 0-[6-amino-5-(4-{2-[3-(3,3-dimethyl-4-morpholinyl)-1-propynyl]-4-pyrimidinyl}-1,4-diazepan-1-yl)-3-pyridazinyl]phenol]
10 | < 50 | 30 to 70 | < 50 | ++ (++=30-70%) | – | – | Nc1nnc(-c2ccccc2O)cc1N1CCN(c2ccnc(C#CCNC(=O)c3ccn(C4CC4)n3)n2)CC1 [Compound P-11, N-[3-(4-{4-[3-amino-6-(2-hydroxyphenyl)pyridazin-4-yl]piperazin-1-yl}pyrimidin-2-yl)prop-2-yn-1-y1]-1-cyclopropyl-1H-pyrazole-3-carboxamide]
11 | 50 to 500 | 30 to 70 | 50 to 500 | +++ (+++=>70%) | – | – | Nc1nnc(-c2ccccc2O)cc1N1CCCN(c2ccnc(C#CCN3CCOC4(CCCC4)C3)n2)CC1 [Compound P-370, 0-{6-amino-5-[4-(2-{3-(6-oxa-9-aza-9-spiro[4.5]decyl)-1-propynyl}-4-pyrimidinyl)-1,4-diazepan-1-yl]-3-pyridazinyl}phenol]
12 | 50 to 500 | < 30 | 50 to 500 | ++ (++=30-70%) | – | – | Nc1nnc(-c2ccccc2O)cc1N1CCCN(c2ccnc(C#CC3CC3)n2)CC1 [Compound P-359, 0-(6-amino-5-{4-[2-(2-cyclopropylethynyl)-4-pyrimidinyl]-1,4-diazepan-1-yl}-3-pyridazinyl)phenol]
13 | 500 to 5000 | < 30 | 500 to 5000 | + (+=<30%) | – | – | CC1CCN(c2cc(-c3ccccc3O)nnc2N)CCN1c1ccnc(C#CCN)n1 (centres unmarked) [Compound P-85, 2-(6-amino-5-(4-(2-(3-aminoprop-1-yn-1-yl)pyrimidin-4-yl)-5-methyl-1,4-diazepan-1-yl)pyridazin-3-yl)phenol]
14 | 50 to 500 | 30 to 70 | 50 to 500 | +++ (+++=>70%) | – | – | CC(C)(C)OC(=O)NC/C=C/c1nccc(N2CCCN(c3cc(-c4ccccc4O)nnc3N)CC2)n1 [Compound P-114, tert-butyl (E)-(3-(4-(4-(3-amino-6-(2-hydroxyphenyl)pyridazin-4-yl)-1,4-diazepan-1-yl)pyrimidin-2-yl)allyl)carbamate]
15 | 50 to 500 | 30 to 70 | 50 to 500 | +++ (+++=>70%) | – | – | C[C@@H]1CCN(c2cc(-c3ccccc3O)nnc2N)CCN1c1ccnc(C#CCOCC2CC(N(C)C)C2)n1 (stereo partly drawn) [Compound P-251, o-{5-[(R)-4-[2-(3-{[3-(dimethylamino)cyclobutyl]methoxy}-1-propynyl)-4-pyrimidinyl]-5-methyl-1,4-diazepan-1-yl]-6-amino-3-pyridazinyl}phenol]
16 | 50 to 500 | 30 to 70 | 50 to 500 | ++ (++=30-70%) | – | – | Nc1nnc(-c2ccccc2O)cc1N1CCN(c2ccnc(C#CCNC(=O)c3cnn4cccc(F)c34)n2)CC1 [Compound P-117, N-(3-(4-(4-(3-amino-6-(2-hydroxyphenyl)pyridazin-4-yl)piperazin-1-yl)pyrimidin-2-yl)prop-2-yn-1-yl)-4-fluoropyrazolo[1,5-a]pyridine-3-carboxamide]
17 | – | – | 500 to 5000 | + (+=<30%) | – | – | NCC#Cc1nccc(N2CCCC3(CCN(c4cc(-c5ccccc5O)nnc4N)CC3)C2)n1 [Compound P-87, 2-(6-amino-5-(2-(2-(3-aminoprop-1-yn-1-yl)pyrimidin-4-yl)-2,9-diazaspiro[5.5]undecan-9-yl)pyridazin-3-yl)phenol]
18 | – | – | > 5000 | + (+=<30%) | – | – | NCC#Cc1nccc(N2CCC3C2CCCN3c2cc(-c3ccccc3O)nnc2N)n1 (centres unmarked) [Compound P-88, 2-(6-amino-5-(1-(2-(3-aminoprop-1-yn-1-yl)pyrimidin-4-yl)octahydro-4H-pyrrolo[3,2-b]pyridin-4-yl)pyridazin-3-yl)phenol]

Row | Structure (SMILES) | DC50 [1] [nM] | inhibition at 1 µM ([1]; @ 1 μM) [%] | DC50 [2] [nM] | SMARCA2 % Degradation @ 1 μM ([2]; @ 1 μM) | inhibition at 1 µM ([1]; 1 μM) [%] | SMARCA2 % Degradation @ 1 μM ([2]; 1 μM)
19 | Oc1ccccc1-c1cc(N2CC3CCC(C2)N3c2ccnc(C#CCN3CCCCC3)n2)cnn1 [Compound P-369, 0-(5-{8-[2-(3-piperidino-1-propynyl)-4-pyrimidinyl]-3,8-diazabicyclo[3.2.1]oct-3-y1}-3-pyridazinyl)phenol] | 500 to 5000 | < 30 | < 50 | ++ (++=30-70%) | – | –
20 | Nc1nnc(-c2ccccc2O)cc1N1C2CCC1CN(c1ccnc(C#CCNC(=O)c3cc4ncccn4n3)n1)C2 [Compound P-78, N-(3-(4-(8-(3-amino-6-(2-hydroxyphenyl)pyridazin-4-yl)-3,8-diazabicyclo[3.2.1]octan-3-yl)pyrimidin-2-yl)prop-y2-yn-1-l)pyrazolo[1,5-a]pyrimidine-2-carboxamide] | 50 to 500 | 30 to 70 | 50 to 500 | +++ (+++=>70%) | – | –
21 | C[C@@H]1CCN(c2cc(-c3ccccc3O)nnc2N)CCN1c1ccnc(C#CCN2CC3CC(C2)O3)n1 [Compound P-179, o-{5-[(R)-5-methyl-4-(2-{3-(6-oxa-3-azabicyclo[3.1.1]hept-3-yl)-1-propynyl}-4-pyrimidinyl)-1,4-diazepan-1-yl]-6-amino-3-pyridazinyl}phenol] | 50 to 500 | 30 to 70 | 50 to 500 | +++ (+++=>70%) | – | –
